Assay results taken from patent US20040018259A1, “Use of at least one extract of a plant of the genus lannea in a cosmetic or dermopharmaceutical composition” (priority 1999, published 2004).
Blank lines part the entries; values can stand above or below the compound they belong to.

Legend:
[1] = target: T1, elastase of the abdominal salivary gland (serine protease) (Sus scrofa, UniProt P00772); assay: In tubo antielastase test, elastin connected with Congo red; type: biochemical
Protocol: (§1) The in tubo tests are carried out with an elastase of the abdominal salivary gland (serine protease) using two types of substrate: a synthetic color-forming (chromogenic) substrate and a natural substrate consisting of elastin connected with Congo red.
(§2) Incubation lasts 30 minutes at room temperature and coloration is measured at 410 nm and 520 nm.
(§3) The inhibition test standard tested for comparison is 1 antitrypsin.

[2] = target: T1, elastase of the abdominal salivary gland (serine protease); assay: In tubo antielastase test, synthetic chromogenic substrate; type: biochemical
Protocol: as §1, §2, §3

tyrosinase = assay: In tubo tyrosinase inhibition test (L-DOPA, dopachromium DO at 475 nm); type: biochemical; settings: extract concentration producing 50% inhibition of the enzyme activity
Description: In Tubo Tyrosinase Inhibition Test mixing of the L-DOPA with tyrosinase and the Lannea coromandelica extracts to be tested, recording of the DO at 475 nm of the dopachromium, calculation of the kinetics, then the CI50 (extract concentration which produces a 50% inhibition of the enzyme activity).

[3] = tested on: singlet oxygen on type I collagen; assay: Anti-singlet oxygen effect on type I collagen (viscosity, riboflavin + UV-A)
Description: Collagen is a dermal glycoprotein which is very sensitive to the activity of the reactive form of oxygen (or FRO). It was shown that singlet oxygen (O2^1) produces troublesome crosslinkings among the proteins.
The principle of this test is based on measurement of the viscosity of an aqueous solution of type I collagen in the presence of a photochemical O2^1-evolving system.
O2^1, which is produced by riboflavin in the presence of UV-A, causes the collagen to gel in the presence of glucose which is reflected in an increase in viscosity. This effect is inhibited by the molecules which expose O2^1, such as thiourea or aminoguanidine for example.
Viscosity is evaluated by measurement of the throughflow time through the capillary of a “Cannon Fenske” viscosimeter.

human fibroblasts = assay: Anti-UVA cytophotoprotection test on human fibroblasts; type: cell-based; settings: UV-A 15 J/cm^2
Description: d) Anti-UVA-Cytophotoprotection Test on Human Fibroblasts
This in vitro test evaluates the ability of Lannea coromandelica extracts according to the invention to afford human fibroblasts cytophotoprotection against UV-A.
The UV-As are selected as a study model because they penetrate into the inner skin and introduce an oxidizing stress into the skin which is reflected in particular in a lipoperoxidation of the cytoplasmic membrane. The lipoperoxides formed split up into malonaldialdehydes (MDAs) which are responsible for the crosslinking of numerous biological molecules, such as proteins for example (enzyme inhibition), and nuclein bases (mutagenesis).
Fibroblasts are inoculated into a nutrient medium defined with calf foetus serum. The Lannea coromandelica extract was added 2 to 3 days after inoculation. After incubation for 2 to 3 days at 37° C./CO2=5%, the nutrient medium is replaced by a salt solution and the fibroblasts are exposed to a dose of UV-A (15 J/cm^2).
After the exposure, the MDA level in the salt solution floating on the surface is determined and the protein level in the fibroblasts is measured. The MDA level is determined by reaction to thiobarbituric acid while the protein levels are determined by the Bradford method.

B16 melanocytes = assay: In vitro melanogenesis inhibition test on B16 melanocytes; type: cell-based; settings: 0.3% dose
Protocol: In Vitro Melanogenesis Inhibition Test on B16 Melanocytes inoculation of the melanocytes into a growth substrate, incubation for three days at 37° C., CO2=5%, introduction of the Lannea coromandelica extracts into a medium which activates melanogenesis, […]
spectrophotometric dosing of the proteins (co-called Bradford method) and the melanin (DO at 475 nm) into the homogenized melanocytes, calculation of an activity index which corresponds to the ratio (protein level/melanin level) for an optimal dose of extract.
It follows that the higher the index (>1), the greater the ability to inhibit melanogensis.

[4] = Anti-anion superoxide test (hypoxanthine/xanthine oxidase) with luminol + microperoxidase; type: biochemical; settings: for percentage inhibition, test with luminol + microperoxidase: average of 2 tests
Description: (§4) *Anti-Anion Superoxide Effect (O2.^−) O2.^− is produced during the oxidizing stress through the introduction of an enzyme, xanthine oxidase (XOD), which degrades the excess hypoxanthine (HX) during an interruption in or disruption of the energy metabolism in living tissue. O2.^− is toxic, particularly because of its ability to form hydrogen peroxide (H2O2)—which in turn forms a source of HO^• through the Fenton reaction—either spontaneously or in the presence of Superoxid-Dismutase (SOD). The biochemical tests are carried out with HX in the presence of XOD and the O2.^− are exposed by luminol or a mixture of luminol and peroxidase, which exposes O2.^− and H2O2, or by a tetrazolium salt (NBT) which forms a red compound evaluated at 540 nm.

[5] = Anti-DPPH° test (anti-radical effect); settings: for level of leuco compound formed (in % in relation to the control): average of 2 tests
Description: a) DPPH° Test DPPH (diphenyl picryl hydrazyl) is a stable, free, violet-colored radical which is modified in its leuco compound by the substances that trap the free radicals (=scavenger or bait effect). The result is expressed in leuco compound levels which are formed in the presence of the active agent (in % in relation to the control with no active principle).

[6] = Anti-HO° test with deoxyribose (Fenton reaction) without EDTA; settings: for percentage inhibition of the hydroxylation rate: average of 2 tests
Protocol: (§5) Anti-HO°-Test with Deoxyribose (Fenton Reaction) These tests evaluate the ability of an active substance to eliminate (“bait”) HO° produced by the Fenton reaction (H2O2 in the presence of iron). HO° can be exposed by deoxyribose. Deoxyribose is an essential compound of ADN which is oxidized and then fragmented by HO°. The oxidation product of deoxyribose is exposed by condensation with thiobarbituric acid (measurement of optical density at 532 nm). This test is carried out with and without EDTA in order to determine the ability of the extract to form active complex compounds with iron (“[…] effect”).

[7] = Anti-anion superoxide test (hypoxanthine/xanthine oxidase) with NBT; type: biochemical; settings: for percentage inhibition, test with NBT: average of 2 tests
Description: as §4

[8] = Anti-HO° test with deoxyribose (Fenton reaction) with EDTA; settings: for percentage inhibition of the hydroxylation rate: average of 2 tests
Protocol: as §5

[9] = Anti-anion superoxide test (hypoxanthine/xanthine oxidase) with luminol; type: biochemical; settings: for percentage inhibition, test with luminol: average of 2 tests
Description: as §4

[10] = tested on: clostridium hystoliticum collagenase; assay: In tubo anticollagenase test (FALGPA substrate); type: biochemical
Protocol: b) In Tubo Anticollagenase Test
The tests are carried out with a clostridium hystoliticum collagenase and a synthetic chromogenic substrate: FALGPA. Incubation lasts 3O minutes at room temperature and optical density is measured at 324 nm. The inhibition test standard tested for comparison is cysteine.
The results are set out in Table X below which emphasizes the anticollagenase activity of the Lannea coromandelica extracts (results in percentage inhibition).

T1 sequence (P00772 27-266): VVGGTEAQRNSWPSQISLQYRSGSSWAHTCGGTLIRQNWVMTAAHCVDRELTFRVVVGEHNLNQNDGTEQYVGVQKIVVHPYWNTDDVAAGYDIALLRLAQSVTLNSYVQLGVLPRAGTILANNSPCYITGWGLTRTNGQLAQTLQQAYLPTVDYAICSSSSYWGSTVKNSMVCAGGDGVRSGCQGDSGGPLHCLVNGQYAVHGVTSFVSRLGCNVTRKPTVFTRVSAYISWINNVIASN

Compound: 1α antitrypsin: inhibition test standard tested for comparison in the antielastase test
Cl50 antielastase, elastin connected with Congo red [1]: NB: Cl50 in % by wt./vol. for 1α antitrypsin = 0.04%
Cl50 antielastase, synthetic substrate [2]: NB: Cl50 in % by wt./vol. for 1α antitrypsin = 0.04%

Cl50 in tubo tyrosinase inhibition (tyrosinase): Cl50 = 0.025% by wt./vol.
Compound: Oc1ccc(O)cc1 [Hydroquinone]

Compound: N=C(N)NN [Aminoguanidine, aminoguanidine]
Cl50 photoprotection of type I collagen [3]: 0.004 % (wt./vol.)
photoprotective effect on type I collagen, percentage inhibition ([3]; dose 0.005% (wt./vol.)): 57%
photoprotective effect on type I collagen, percentage inhibition ([3]; dose 0.015% (wt./vol.)): 75%

Compound: Vitamin E
MDA level in % in relation to the irradiated control (human fibroblasts; 0.0003%): 21%
Proteins in % in relation to the non-irradiated control (human fibroblasts; 0.0003%): 97%
MDA level in % in relation to the irradiated control (human fibroblasts; 0.001%): 8%
Proteins in % in relation to the non-irradiated control (human fibroblasts; 0.001%): 98%

Compound: OC[C@H]1O[C@@H](Oc2ccc(O)cc2)[C@H](O)[C@@H](O)[C@@H]1O [Arbutin]
I = activity index on B16 melanocytes (protein level/melanin level) (B16 melanocytes): I = 3.14 (for the 0.3% dose)

Cl50 test with luminol + microperoxidase [4]: 0.0058 % (wt./vol.)
percentage inhibition, test with luminol + microperoxidase ([4]; dose 0.001% (wt./vol.)): 0%
percentage inhibition, test with luminol + microperoxidase ([4]; dose 0.01% (wt./vol.)): 94%
Cl50 test with NBT [7]: 0.5909 % (wt./vol.)
percentage inhibition, test with NBT ([7]; dose 0.01% (wt./vol.)): 15%
percentage inhibition, test with NBT ([7]; dose 0.1% (wt./vol.)): 32%
percentage inhibition, test with NBT ([7]; dose I % (wt./vol.)): 65%
Cl50 test with luminol [9]: 0.0006 % (wt./vol.)
percentage inhibition, test with luminol ([9]; dose 0.0001% (wt./vol.)): 5%
percentage inhibition, test with luminol ([9]; dose 0.001% (wt./vol.)): 92%
percentage inhibition, test with luminol ([9]; dose 0.01% (wt./vol.)): 100%
Compound: O=C1O[C@H]([C@@H](O)CO)C(O)=C1O [Ascorbic acid]
Cl50 anti-DPPH° test [5]: 0.0013 % (wt./vol.)
level of leuco compound formed (in % in relation to the control) ([5]; dose 0.001% (wt./vol.)): 49%
level of leuco compound formed (in % in relation to the control) ([5]; dose 0.01% (wt./vol.)): 75%
Cl50 Fenton reaction without EDTA [6]: 0.9 % (wt./vol.)
percentage inhibition of the hydroxylation rate ([6]; dose 0.01% (wt./vol.)): 5%
percentage inhibition of the hydroxylation rate ([6]; dose 0.03% (wt./vol.)): 75%
percentage inhibition of the hydroxylation rate ([6]; dose 0.1% (wt./vol.)): 2%
percentage inhibition of the hydroxylation rate ([6]; dose 1% (wt./vol.)): 56%
Cl50 Fenton reaction with EDTA [8]: 0.26 % (wt./vol.)
percentage inhibition of the hydroxylation rate ([8]; dose 0.1% (wt./vol.)): 45%
percentage inhibition of the hydroxylation rate ([8]; dose 1% (wt./vol.)): 73%

Compound: N[C@@H](CS)C(=O)O [cysteine]
Cl50 anticollagenase [10]: NB: Cl50 in % by wt./vol. of cysteine = 2.4%
